Measurements as given in publication PMC2248166, “Quantitative peptide binding motifs for 19 human and mouse MHC class I molecules derived using positional scanning combinatorial peptide libraries” (Immunome Research, 2008).
pIC50: −log10 of the molar value. Where a SMILES comes first, the peptide text is derived from it.

The compounds below were run against HLA A*3001 (Homo sapiens, UniProt P04439, D140H/D185E/E176W/F33S/G80R/H175R/K168Q/R138E/R41S) (assay: biochemical).
Chain of HLA A*3001 (P04439 25-365 limits assumed, stated change not applied): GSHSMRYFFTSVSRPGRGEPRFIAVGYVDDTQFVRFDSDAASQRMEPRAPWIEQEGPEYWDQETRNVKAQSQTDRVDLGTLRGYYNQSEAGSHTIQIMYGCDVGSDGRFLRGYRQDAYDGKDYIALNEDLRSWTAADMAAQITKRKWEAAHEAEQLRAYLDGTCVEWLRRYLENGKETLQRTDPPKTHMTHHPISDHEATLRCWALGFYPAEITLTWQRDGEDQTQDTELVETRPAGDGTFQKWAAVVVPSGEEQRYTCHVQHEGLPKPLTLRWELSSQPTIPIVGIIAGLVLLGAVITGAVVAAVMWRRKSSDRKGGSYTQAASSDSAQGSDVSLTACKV
Type: binding
With `CC[C@H](C)[C@H](NC(=O)[C@H](CCCCN)NC(=O)[C@@H](NC(=O)[C@@H](N)CCCCN)[C@@H](C)O)C(=O)N[C@@H](CC(=O)O)C(=O)N[C@H](C(=O)N[C@H](C(=O)N[C@@H](Cc1ccccc1)C(=O)N[C@@H](C)C(=O)O)[C@@H](C)CC)[C@@H](C)CC` [3102.0285] (H-KTKIDIIFA-OH) the pIC50 was 8.00. For `CC[C@H](C)[C@H](NC(=O)[C@H](CCSC)NC(=O)[C@H](CCSC)NC(=O)[C@@H](NC(=O)[C@@H](N)CCCCN)[C@@H](C)O)C(=O)N[C@@H](CC(N)=O)C(=O)N1CCC[C@H]1C(=O)N[C@@H](Cc1ccccc1)C(=O)N[C@@H](CCSC)C(=O)O` [3102.0254] (H-KTMMINPFM-OH), the pIC50 was 9.44. Compound `CC[C@H](C)[C@H](NC(=O)[C@H](CCCCN)NC(=O)[C@@H](NC(=O)[C@@H](N)CCCNC(=N)N)[C@@H](C)O)C(=O)N[C@H](C(=O)N[C@@H](CO)C(=O)N[C@@H](CC(C)C)C(=O)N1CCC[C@H]1C(=O)N[C@@H](CC(C)C)C(=O)O)[C@@H](C)O` [3102.0201] (H-RTKITSLPL-OH) has a pIC50 of 10.06. For `CC(C)C[C@H](NC(=O)[C@H](CCCNC(=N)N)NC(=O)[C@@H](NC(=O)[C@@H](N)CCCNC(=N)N)C(C)C)C(=O)N[C@@H](CCCNC(=N)N)C(=O)N[C@@H](Cc1ccc(O)cc1)C(=O)N[C@@H](CCCNC(=N)N)C(=O)N[C@@H](CO)C(=O)NCC(=O)O` [3102.0082] (H-RVRLRYRSG-OH), the pIC50 was 7.89. For `CC(C)C[C@H](NC(=O)[C@H](Cc1c[nH]cn1)NC(=O)[C@H](CC(N)=O)NC(=O)[C@H](CS)NC(=O)[C@H](CCCNC(=N)N)NC(=O)[C@H](C)NC(=O)[C@@H](N)CCCCN)C(=O)N[C@H](C(=O)N[C@@H](CCCCN)C(=O)O)[C@@H](C)O` [3102.0131] (H-KARCNHLTK-OH), the pIC50 was 9.68. For `CC(C)C[C@H](NC(=O)[C@@H]1CCCN1C(=O)[C@H](Cc1c[nH]cn1)NC(=O)[C@@H](NC(=O)[C@H](CS)NC(=O)[C@H](CCCCN)NC(=O)[C@@H](NC(=O)[C@@H](N)CO)C(C)C)[C@@H](C)O)C(=O)N[C@H](C(=O)O)C(C)C` [3102.0215] (H-SVKCTHPLV-OH), the pIC50 was 9.01. Work on `CC[C@H](C)[C@H](NC(=O)[C@H](CCCCN)NC(=O)[C@@H](NC(=O)[C@H](CO)NC(=O)[C@H](CCC(N)=O)NC(=O)[C@H](CC(=O)O)NC(=O)[C@H](CCCNC(=N)N)NC(=O)[C@H](CC(C)C)NC(=O)[C@@H](N)Cc1c[nH]cn1)[C@@H](C)CC)C(=O)O` [3102.0041] (H-HLRDQSIKI-OH) yielded a pIC50 of 7.82. `CC(C)C[C@H](NC(=O)[C@H](CC(C)C)NC(=O)[C@H](Cc1ccc(O)cc1)NC(=O)[C@@H](NC(=O)[C@H](C)NC(=O)[C@H](CCCCN)NC(=O)[C@@H](NC(=O)[C@@H](N)C(C)C)C(C)C)[C@@H](C)O)C(=O)N[C@@H](CCCCN)C(=O)O` [3102.0181] (H-VVKATYLLK-OH) showed a pIC50 of 9.49. `CC(C)C[C@H](NC(=O)[C@H](Cc1ccccc1)NC(=O)[C@H](CC(N)=O)NC(=O)[C@H](Cc1ccccc1)NC(=O)[C@@H]1CCCN1C(=O)[C@H](C)NC(=O)[C@H](CC(C)C)NC(=O)[C@@H](NC(=O)[C@@H](N)CCCCN)[C@@H](C)O)C(=O)O` [3102.0030] (H-KTLAPFNFL-OH) gave a pIC50 of 7.82. `CC[C@H](C)[C@H](N)C(=O)N[C@H](C(=O)N[C@@H](CCCCN)C(=O)N[C@@H](CO)C(=O)N[C@@H](CO)C(=O)N[C@@H](Cc1ccc(O)cc1)C(=O)N[C@H](C(=O)N[C@@H](Cc1ccccc1)C(=O)N[C@@H](CCCCN)C(=O)O)C(C)C)[C@@H](C)CC` [3102.0029] (H-IIKSSYVFK-OH) showed a pIC50 of 7.96. `C[C@H](NC(=O)[C@H](CCCNC(=N)N)NC(=O)[C@H](Cc1ccccc1)NC(=O)[C@H](CCCCN)NC(=O)[C@@H]1CCCN1C(=O)[C@@H]1CCCN1C(=O)[C@H](CCCCN)NC(=O)[C@H](Cc1ccccc1)NC(=O)[C@@H](N)Cc1c[nH]cn1)C(=O)O` [3102.0279] (H-HFKPPKFRA-OH) showed a pIC50 of 8.05. In the case of `CC(C)C[C@H](NC(=O)[C@H](CO)NC(=O)[C@@H]1CCCN1C(=O)[C@@H]1CCCN1C(=O)[C@H](CO)NC(=O)[C@@H](NC(=O)[C@@H](N)CCCCN)C(C)C)C(=O)NCC(=O)N[C@@H](CCCCN)C(=O)O` [3102.0017] (H-KVSPPSLGK-OH), the pIC50 was 8.96.
